Measured values taken from patent US20130065897A1, “COMPOUNDS, PREPARATION AND USES THEREOF” (PETER MACCALLUM CANCER INSTITUTE, priority 2009, published 2013).
Read-outs that look alike come from different tables or passages of the source.

Assays:
Assay type in all cases: cell-based
[1] = biological target: recombinant perforin (UniProt P10820)
Protocol: Inhibition of Perforin-Mediated Lysis of Jurkat Cells
The ability of the compounds to inhibit the lysis of nucleated (Jurkat T lymphoma) cells in the presence of 0.1% BSA, as measured by release of ^51Cr was measured. Jurkat target cells were labelled by incubation in medium with 100 μCi ^51Cr for one hour. The cells were then washed three times to remove unincorporated isotope and re-suspended at 1×10^5 cells per mL in RPMI buffer supplemented with 0.1% BSA. […] The supernatant was collected and assessed for its radioactive content on a gamma counter (Wallac Wizard 1470 automatic gamma counter). Each data point was performed in triplicate and an IC50 was calculated from the range of concentrations described to above.

[2] = tested on: KHYG-1 NK cells; test: Toxicity to KHYG-1 NK cells (trypan blue viability); conditions: viable cells as percentage of total (% viability), 18 to 24 hours
Protocol: Toxicity to KHYG-1 NK Cells
KHYG-1 cells were washed and resuspended in RPMI+0.1% BSA at 4×10^5 cells/ml and 50 μl of KHYG-1 cells were dispensed to each well of a 96-well V-bottom plate. Test compounds were added to KHYG-1 cells at a concentration of 20 μM and incubated at RT for 20 minutes. 100 μL of RPMI 0.1% BSA was added and the cells were incubated for 4 hours at 37° C. then washed ×3 in RPMI+0.1% BSA. Cells were then resuspended in 200 μl of complete medium and incubated for 18 to 24 hours at 37° C. Trypan blue was added to each well and viable (clear) cells counted as a percentage of total (clear+blue) cell number (% viability).

[3] = tested on: KHYG-1 NK cell-mediated lysis of K562 cells; test: Inhibition of KHYG-1 NK cell-mediated lysis of K562 cells (51Cr release); conditions: K562 target cells, Effector:Target 2:1, 4 hours 37° C.
Protocol: Inhibition of KHYG-1 NK Cell-Mediated lysis of K562 Cells
KHYG-1 cells were washed and resuspended in RPMI+0.1% BSA at 4×10^5 cells/ml and 50 μl of KHYG-1 cells were dispensed to each well of a 96-well V-bottom, plate. Test compounds were added to KHYG-1 cells at various concentrations up to 20 μM and incubated at RT for 20 minutes. 1×10^6 K562 target cells were labelled with 75 μCi ^51Cr in 200 μl RPMI for 90 mins at 37° C., cells were washed as described above and resuspended in 5 ml RPMI+0.1% BSA. 50 μl of ^51Cr labelled K562 leukemia target cells were added to each well of the KHYG-1 plate (Effector:Target 2:1) and incubated at 37° C. for 4 hours. ^51Cr release was assayed using a Skatron Harvesting Press and radioactivity estimated on a Wallac Wizard 1470 Automatic Gamma counter (Turku, Finland). The percentage of specific cytotoxicity was calculated by the formula: […]
and expressed as the mean of triplicate assays +/−standard error of the mean.

[4] = read-out: Jurkat IC50; recombinant perforin pre-incubated 30 min with compound; 51Cr-labelled Jurkat cells, 0.1% BSA, 37° C. 4 hours

recombinant perforin, sequence (P10820 whole entry): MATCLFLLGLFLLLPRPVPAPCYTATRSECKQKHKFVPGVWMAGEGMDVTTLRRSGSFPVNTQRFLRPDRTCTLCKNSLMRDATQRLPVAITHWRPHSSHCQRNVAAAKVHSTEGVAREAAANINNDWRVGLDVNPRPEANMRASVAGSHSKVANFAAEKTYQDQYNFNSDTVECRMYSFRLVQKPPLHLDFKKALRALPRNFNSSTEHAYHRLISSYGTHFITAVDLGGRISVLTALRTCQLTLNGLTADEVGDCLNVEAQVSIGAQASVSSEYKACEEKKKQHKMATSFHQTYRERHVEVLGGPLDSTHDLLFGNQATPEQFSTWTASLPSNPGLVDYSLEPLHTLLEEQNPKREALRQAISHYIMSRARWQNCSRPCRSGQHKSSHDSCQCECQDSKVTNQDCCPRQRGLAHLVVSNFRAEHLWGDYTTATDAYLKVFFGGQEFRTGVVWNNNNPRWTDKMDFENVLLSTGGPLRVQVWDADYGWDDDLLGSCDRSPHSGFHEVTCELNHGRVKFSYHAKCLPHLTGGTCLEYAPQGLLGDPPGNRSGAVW

Structure (SMILES)	IC50 [1, 4] [nM]	percent viable KHYG-1 cells (trypan blue) at 20 μM [2] [%]	inhibition at 20 µM [3] [%]	IC50 ([1]; recombinant perforin pre-incubated 30 min with compound; 51Cr-labelled Jurkat cells, 0.1% BSA, 37° C. 4 hours; read-out: Jurkat IC50) [nM]	Inhibition of KHYG-1 at 20 μM [3] [%]
O=C1NC(=S)N/C1=C/c1ccc(-c2ccc(C(=O)NCCCN3CCOCC3)cc2)s1 [Cmpd 43, (E,Z)-N-(3-Morpholinopropyl)-4-(5-((5-oxo-2-thioxoimidazolidin-4-ylidene)methyl)thiophen-2-yl)benzamide]	8130	89	81		
O=C1NC(=S)N/C1=C\c1ccc(-c2ccc3c(c2)CNC3=O)cn1 [Cmpd 51, (E,Z)-5-(6((5-Oxo-2-thioxoimidazolidin-4-ylidene)methyl)pyridin-3-yl)isoindolin-1-one]	630	97	19		
NC(=O)c1cccc(-c2ccc(/C=C3/NC(=S)NC3=O)s2)c1 [Cmpd 17, (E,Z)-3-(5-((5-Oxo-2-thioxoimidazolidin-4-ylidene)methyl)thiophen-2-yl)benzamide]	790	100	35		
CSc1ccc(-c2ccc(/C=C3/NC(=S)NC3=O)s2)cc1 [Cmpd 27]	1150	83	43		
NC(=O)c1ccc(-c2ccc(/C=C3/NC(=S)NC3=O)s2)cc1 [Cmpd 16, (E,Z)-4-(5-((5-oxo-2-thioxoimidazolidin-4-ylidene)methyl)thiophen-2-yl)benzamide]	1560	52	80		
CCCCN1Cc2cc(-c3ccc(/C=C4/NC(=S)NC4=O)s3)ccc2C1=O [Cmpd 64, (E,Z)-2-Butyl-5-(5-((5-oxo-2-thioxoimidazolidin-4-ylidene)methyl)thiophen-2-yl)isoindolin-1-one]	990	94	96		
N#Cc1cccc(-c2ccc(/C=C3/NC(=S)NC3=O)s2)c1 [Cmpd 34, (E,Z)-3-(5-((5-Oxo-2-thioxoimidazolidin-4-ylidene)methyl)thiophen-2-yl)benzonitrile]	9680	99	97		
O=C1NC(=S)N/C1=C/c1ccc(-c2ccc3c(c2)CNC3=O)s1 [Cmpd 46, (E,Z)-5-(5-((5-Oxo-2-thioxoimidazolidin-4-ylidene)methyl)thiophen-2-yl)isoindolin-1-one]	2550	98	70		
COC(=O)c1ccc(-c2ccc(/C=C3/NC(=S)NC3=O)s2)cc1 [Cmpd 19, (E,Z)-Methyl 4-(5-((5-oxo-2-thioxoimidazolidin-4-ylidene)methyl)thiophen-2-yl)benzoate]	1620	95	30		
CC(=O)OCCN1Cc2cc(-c3ccc(/C=C4/NC(=S)NC4=O)s3)ccc2C1=O [Cmpd 68, (E,Z)-2-(1-Oxo-5-(5-((5-oxo-2-thioxoimidazolidin-4-ylidene)methyl)thiophen-2-yl)isoindolin-2-yl)ethyl acetate]	1170	84	86		
CN1Cc2ccc(-c3ccc(/C=C4/NC(=S)NC4=O)s3)cc2C1=O [Cmpd 73, (E,Z)-2-Methyl-6-(5-((5-oxo-2-thioxoimidazolidin-4-ylidene)methyl)thiophen-2-yl)isoindolin-1-one]	1890	85	60		
O=C1NC(=S)N/C1=C\c1ccc(-c2ccc3c(c2)CCNC3=O)s1 [Cmpd 82, (E,Z)-6-(5-((5-Oxo-2-thioxoimidazolidin-4-ylidene)methyl)thiophen-2-yl)-3,4-dihydroisoquinolin-1(2H)-one]	1140	80	92		
CCCN1Cc2cc(-c3ccc(/C=C4/NC(=S)NC4=O)s3)ccc2C1=O [Cmpd 63, (E,Z)-5-(5-((5-Oxo-2-thioxoimidazolidin-4-ylidene)methyl)thiophen-2-yl)-2-propylisoindolin-1-one]	1520	94	95		
O=C1NC(=S)N/C1=C/c1ccc2cc(-c3ccc4c(c3)COC4=O)ccc2n1 [Cmpd 14, (E,Z)-5-((6-(1-Oxo-1,3-dihydroisobenzofuran-5-yl)quinolin-2-yl)methylene)-2-thioxoimidazolidin-4-one]		81		470	56
CCN1Cc2cc(-c3ccc(/C=C4/NC(=S)NC4=O)s3)ccc2C1=O [Cmpd 62, (E,Z)-2-Ethyl-5-(5-((5-oxo-2-thioxoimidazolidin-4-ylidene)methyl)thiophen-2-yl)isoindolin-1-one]	600	79	84		
O=C1NC(=S)N/C1=C/c1ccc(-c2ccc(O)cc2)s1 [Cmpd 35, (E,Z)-5-((5-(4-Hydroxyphenyl)thiophen-2-yl)methylene)-2-thioxoimidazolidin-4-one]	7720	93	90		
CCOC(=O)N1Cc2cc(-c3ccc(/C=C4/NC(=S)NC4=O)s3)ccc2C1=O [Cmpd 65, (E,Z)-Ethyl 1-oxo-5-(5-((5-oxo-2-thioxoimidazolidin-4-ylidene)methyl)thiophen-2-yl)isoindoline-2-carboxylate]	990	96	72		
CC(O)CNC(=O)c1ccc(-c2ccc(/C=C3/NC(=S)NC3=O)s2)cc1 (stereo not drawn) [Cmpd 41, (E,Z)-N-(2-Hydroxypropyl)-4-(5-((5-oxo-2-thioxoimidazolidin-4-ylidene)methyl)thiophen-2-yl)benzamide]	6500	91	60		
O=C1NC(=O)/C(=C\c2ccc(-c3ccc4c(c3)CNC4=O)s2)N1 [Cmpd 47, (E,Z)-5-((5-(1-Oxoisoindolin-5-yl)thiophen-2-yl)methylene)imidazolidine-2,4-dione]	400	92	73		
O=C1NC(=S)N/C1=C/c1ccc(-c2ccc3c(c2)C(=O)NC3)s1 [Cmpd 72, (E,Z)-6-(5-((5-Oxo-2-thioxoimidazolidin-4-ylidene)methyl)thiophen-2-yl)isoindolin-1-one]	1380	81	58		
CC(=O)N1Cc2cc(-c3ccc(/C=C4/NC(=S)NC4=O)s3)ccc2C1=O [Cmpd 66, (E,Z)-2-Acetyl-5-(5-((5-oxo-2-thioxoimidazolidin-4-ylidene)methyl)thiophen-2-yl)isoindolin-1-one]	930	85	49		
O=C1NC(=S)N/C1=C/c1ccc(-c2ccc3c(c2)CN(CCCN2CCCC2)C3=O)s1 [Cmpd 77, (E,Z)-5-(5((5-Oxo-2-thioxoimidazolidin-4-ylidene)methyl)thiophen-2-yl)-2-(3-(pyrrolidin-1-yl)propyl)isoindolin-1-one]	> 20000	80	81		
CC(C)N1Cc2cc(-c3ccc(/C=C4/NC(=S)NC4=O)s3)ccc2C1=O [Cmpd 52, (E,Z)-2-Isopropyl-5-(5-((5-oxo-2-thioxoimidazolidin-4-ylidene)methyl)thiophen-2-yl)isoindolin-1-one]	4420	92	77		
CNC(=O)c1ccc(-c2ccc(/C=C3/NC(=S)NC3=O)s2)cc1 [Cmpd 38, (E,Z)-N-Methyl-4-(5-((5-oxo-2-thioxoimidazolidin-4-ylidene)methyl)thiophen-2-yl)benzamide]	4530	97	49		
O=C1NC(=S)N/C1=C/c1ccc(-c2ccc3c(c2)CN(CCCN2CCCCC2)C3=O)s1 [Cmpd 75, (E,Z)-5-(5-((5-Oxo-2-thioxoimidazolidin-4-ylidene)methyl)thiophen-2-yl)-2-(3-(piperidin-1-yl)propyl)isoindolin-1-one]	11800	85	61		
